Biological target: T1, full-length human PKCα enzyme (Homo sapiens, UniProt P17252)
T1 construct: full-length human PKCα enzyme; purchased Upstate Biotechnology
Test: Assessment of PKC-α Inhibitory Activity (MALDI-TOF kinase assay)
Format: biochemical
Conditions: full-length human PKCα 0.12 μg/ml; ATP 45 μM; neurogranin 28-43 peptide 22 μM; 30 minute incubation at 24° C.; MALDI-TOF MS readout
Procedure: Measurement of PKCα enzyme activity is performed using full-length human PKCα enzyme (Upstate Biotechnology) at a final concentration of 0.12 μg/ml in a kinase assay buffer (0.09 mg/ml bovine serum albumin (BSA), 210 μM ethylenediaminetetraacetic acid (EDTA), 360 μM CaCl2, 1 mM Tris-HCl, pH=7.5, 0.5 mM MgCl2, 0.015 mg/ml phosphatidylserine and 0.015 mg/ml diacylglycerol). The reaction is initiated by addition of adenosine triphosphate (ATP; final concentration 45 μM) and a peptide substrate consisting of amino acids 28-43 (Ala-Ala-Lys-Ile-Gln-Ala-Ser-Phe-Arg-Gly-His-Met-Ala-Arg-Lys-Lys) of neurogranin (Promega; final concentration 22 μM). After a 30 minute incubation at 24° C. the reaction is terminated by adding 5 μL of the reaction mixture into 50 μL of MALDI matrix solution (5 mg/ml α-cyano-4-hydroxycinnamic acid in 50% Acetonitrile/H2O, 0.1% TFA, 5 mM ammonium phosphate). Two microliters of the stopped reaction mixture is transferred onto a MALDI-TOF mass spectrometer target plate.
All spectra are collected on an Applied Biosystems 4700 Proteomics Analyzer MALDI-TOF MS equipped with a Nd:YAG laser (355 nm, 3 ns pulse width, 200 Hz repetition rate) in negative ion reflector mode. The system is operated with 4700 Explorer software, version 3.0. Automated acquisition parameters are adjusted to capture and average only those individual spectra within defined success criteria. Specifically, signal intensities for the substrate peptide are set to a minimum threshold of 3000 counts and a maximum intensity of 65,000 counts. This ensured that neither null spectra nor saturated spectra are averaged into the final readout. Between 1000 and 1500 laser shots are averaged for each sample. Data are collected in triplicate from 3 successive days to capture the maximum variability related to preparation of enzyme reaction, transfer of samples to MALDI target plates, data collection, and data extraction.
The isotope cluster areas for each peptide substrate and product peaks are extracted into a Microsoft Excel worksheet from the 10×10 array of spectral data simultaneously using the automated analysis function provided within the 4700 Explore software. The isotope cluster area is defined by the software algorithm based on the molecular weight and the general elemental composition of the peptides. The percent conversion (% C) of substrate to product is calculated as the cluster area of the product (P) divided by the sum of the cluster areas of the substrate (S) and the product multiplied by 100 as represented by the following equation: […]
For dose-dependent inhibition studies, the inhibition is plotted as a % Maximal Activity (% MA). Equation one is a measure of the ratio of product to substrate then solving for the % C. However, to measure inhibition of the enzyme activity, one must measure the degree to which that activity (% C) is curtailed. Thus the dose-dependant inhibition data is plotted as % MA where the maximal activity is the % C measured in control reactions with no inhibitor as represented by the following equation: […]

IC50: 1 nM
Structure (SMILES): O=[N+]([O-])c1cccc(Nc2nccc(NCCCN3CCOCC3)n2)c1 [N^2-(3-Nitrophenyl)-N^4-(3-morpholin-4-yl-propyl)-pyrimidine-2,4-diamine]

Source: US8354407B2 (Boehringer Ingelheim International GmbH, priority 2006, dated 2013)
